The test system of this assay is HCMV TB40/E strain. As to the kind of experiment: Plaque reduction assay, HCMV TB40/E strain in human foreskin fibroblasts, single drugs and 2-drug combinations (Chou-Talalay). The class given is cell-based, human cytomegalovirus. The following applies: for Dose of drug alone at Fa 0.75: Fa 0.75, drug alone; for Dose of drug alone at Fa 0.9: Fa 0.9, drug alone; for Dose of drug alone at Fa 0.95: Fa 0.95, drug alone; for Dose of drug alone at Fa 0.97: Fa 0.97, drug alone; for Dose of drug alone at Fa 0.05: Fa (fraction of virus affected) 0.05, drug alone. On the procedure:
The CMV strain used was TB40/E. The CMV strain was propagated and tittered in human foreskin fibroblasts (HFF) cells. Cell-free virus stocks and cell-associated clinical isolates were maintained at -70° C. Viral stocks were tittered by serial 10-fold dilution in 24-well tissue culture plates containing HFF monolayers overlaid with agarose-medium. After incubation for 7 to 14 days, plaques were enumerated, and virus titer was determined as plaque forming units (PFU) per milliliter (ml). Stocks of artemisone (10 mM), ganciclovir (10 mM), BDCRB (120 mM), brincidofovir (1 mM), maribavir (10 mM) and letermovir (10 mM) were prepared in DMSO or H2O.
Cell monolayers were inoculated in 24-well culture plates with 0.2 ml of virus suspension containing 60 to 100 PFU per well. After adsorption for 60 -120 min at 37° C., the inoculum was removed, and culture medium was replaced with agarose-medium overlay containing serial concentrations of the tested drug(s). Plates were incubated for 7-14 days at 37° C. in a 5% CO2 incubator. Plaques were then counted microscopically.
The effect of a combination of artemisone with each one of ganciclovir (HCMV DNA polymerase), BDCRB (HCMV terminase inhibitor), brincidofovir (HCMV DNA polymerase inhibitor), maribavir (HCMV UL97 kinase inhibitor) and letermovir (HCMV terminase inhibitor) was evaluated by the classical plaque reduction assay. The in vitro activity of each of the above mentioned antiviral compounds alone or in combination with artemisone was evaluated by the classical plaque reduction assay, using HCMV TB40/E strain in human foreskin fibroblasts cells. The concentration of each antiviral compound that reduced the plaque formation by 50% (EC50) was determined as previously described in Wolf DG et al., J Clin Invest. 1995;95:257-63. The individual EC50 values in human foreskin fibroblasts were as follows: artemisone EC50 - 1 µM; ganciclovir EC50 - 1 µM; maribavir EC50 - 1 µM; BDCRB EC50 - 0.5 µM; letermovir EC50 - 5 nM; brincidofovir EC50 -1 nM.
For the 2-drug combination studies, the EC50 value of each drug was used to determine an equipotent ratio between the two compounds (EC50 of drug 1 / EC50 of drug 2). Serial 2-fold dilutions of a mixture comprising artemisone and another antiviral compound at initial concentrations equivalent to 4-fold the equipotent ratio were added to duplicate wells of cells infected with HCMV. Overall, 5 different concentrations of the drug combinations were used: 4xEC50, 2xEC50, 1xEC50,0.5xEC50,0.25xEC50. The cell monolayers were inoculated in 24-well culture plates with 0.2 ml of virus suspension containing 60 to 100 plaque-forming unit (PFU) per well; the Multiplicity of infection (MOI) was 0.001-0.002 PFU/cell).
D1 and D2 are the doses of the two drugs, and Dx is a dose causing to x% effect (LD0.5 is EC50). Briefly, the software extrapolated a combination index (CI) representing the interaction between the two drugs at specified levels of virus inhibition (that is 50%, 75%, 90%, 95%) versus the percentages of the inhibition induced by each drug alone and in combination (equation 16 in Chou).
A weighted average CI (CIwt) was then calculated for each combination as (CI50+ 2×CI75+3×CI90+4×CI95)/10, to access the drug combinatory effects.
The dose reduction index (DRI) was then calculated as described in Chou. In general, the DRI measures the fold of dose reduction of each drug in the combination at a given effect level compared with the doses of each drug alone. For each one of the below tables: Fa - fraction of virus affected; doses are provided in µm.

[1] abbreviates: Human betaherpesvirus 5, Fibroblast, Fa 0.5, drug alone, read-out: Dose of drug alone at Fa 0.5.
The mark [2] stands for this setting: Human betaherpesvirus 5, Fibroblast, drug alone, human foreskin fibroblasts, read-out: EC50 (concentration that reduced the plaque formation by 50%).

From patent US20230149418A1, “METHODS AND SYNERGIC COMPOSITIONS FOR TREATING VIRAL INFECTIONS” (HADASIT MEDICAL RESEARCH SERVICES AND DEVELOPMENT LTD., priority 2018, published 2023) come the findings set out here.

Read-outs that look alike come from different tables or passages of the source.

Take `COc1cccc(N2CCN(C3=Nc4c(F)cccc4[C@H](CC(=O)O)N3c3cc(C(F)(F)F)ccc3OC)CC2)c1` [letermovir]: the “Dose of drug alone at Fa 0.75” value worked out at 0.00438 µm, the “Dose of drug alone at Fa 0.9” value stood at 0.00952 µm, the “Dose of drug alone at Fa 0.95” value is 0.01614 µm and the “Dose of drug alone at Fa 0.97” value was found to be 0.02351 µm. The “Dose of drug alone at Fa 0.05” value was 2.51E-4 µm. In addition, the EC50 under setting [1] was found to be 2.01 nM. For the same compound, the EC50 under setting [2] was found to be 5 nM. Further, where the note is “combination artemisone + letermovir, Fa 0.05”, the “DRI (dose reduction index)” value came out at 0.5226. The “DRI (dose reduction index)” value (combination artemisone + letermovir, Fa 0.5) amounted to 1.044. Under “combination artemisone + letermovir, Fa 0.75”, the “DRI (dose reduction index)” value amounted to 1.351. For the same compound, the “DRI (dose reduction index)” value (combination artemisone + letermovir, Fa 0.9) stood at 1.75. Moreover, the “DRI (dose reduction index)” value (combination artemisone + letermovir, Fa 0.9, listed as Let) came to 1.749. Besides, under “combination artemisone + letermovir, Fa 0.95”, the “DRI (dose reduction index)” value turned out to be 2.084. Also, the “DRI (dose reduction index)” value (combination artemisone + letermovir, Fa 0.97) was “up to 2.4”. The “DRI (dose reduction index)” value (combination artemisone + letermovir, Fa 0.97, listed as Let) is reported as 2.362.

Consider `Nc1ccn(C[C@@H](CO)OCP(=O)(O)O)c(=O)n1` [cidofovir], for which the “Dose of drug alone at Fa 0.75” value came out at 0.646 µm, the “Dose of drug alone at Fa 0.9” value is reported as 1.148 µm, the “Dose of drug alone at Fa 0.95” value worked out at 1.698 µm and the “Dose of drug alone at Fa 0.97” value amounted to 2.242 µm. The “Dose of drug alone at Fa 0.05” value is listed as 0.07783 µm. The EC50 under setting [1] was found to be 364 nM. The “DRI (dose reduction index)” value (combination artemisone + cidofovir, Fa 0.05) is recorded as 1.038. In addition, under “combination artemisone + cidofovir, Fa 0.5”, the “DRI (dose reduction index)” value stood at 1.757. Also, the “DRI (dose reduction index)” value (combination artemisone + cidofovir, Fa 0.75) was 2.139. The “DRI (dose reduction index)” value (combination artemisone + cidofovir, Fa 0.9) was found to be 2.6. For the same compound, the “DRI (dose reduction index)” value (combination artemisone + cidofovir, Fa 0.9, listed as CDV) stood at 2.603. The “DRI (dose reduction index)” value (combination artemisone + cidofovir, Fa 0.95) worked out at 2.975. The “DRI (dose reduction index)” value (combination artemisone + cidofovir, Fa 0.97) is reported as “up to 3.27”. For the same compound, under “combination artemisone + cidofovir, Fa 0.97, listed as CDV”, the “DRI (dose reduction index)” value stood at 3.271.

As to `Nc1nc2c(ncn2COC(CO)CO)c(=O)[nH]1` [ganciclovir], the “Dose of drug alone at Fa 0.75” value is on record as 1.113 µm, the “Dose of drug alone at Fa 0.9” value was found to be 2.12 µm, the “Dose of drug alone at Fa 0.95” value was 3.287 µm and the “Dose of drug alone at Fa 0.97” value turned out to be 4.491 µm. The “Dose of drug alone at Fa 0.05” value was found to be 0.1039 µm. Under “listed as GCV”, the “Dose of drug alone at Fa 0.9” value was 2.121 µm. Moreover, under setting [1], the EC50 turned out to be 584 nM. Besides, under setting [2], the EC50 amounted to 1000 nM. The “DRI (dose reduction index)” value (combination artemisone + ganciclovir, Fa 0.05) amounted to 1.342. In addition, the “DRI (dose reduction index)” value (combination artemisone + ganciclovir, Fa 0.5) turned out to be 1.673. Moreover, the “DRI (dose reduction index)” value (combination artemisone + ganciclovir, Fa 0.75) is on record as 1.817. The “DRI (dose reduction index)” value (combination artemisone + ganciclovir, Fa 0.9, listed as GCV) is 1.973. Moreover, where the note is “combination artemisone + ganciclovir, Fa 0.95”, the “DRI (dose reduction index)” value is reported as 2.09. Besides, the “DRI (dose reduction index)” value (combination artemisone + ganciclovir, Fa 0.95, listed as GCV) is 2.086. Besides, the “DRI (dose reduction index)” value (combination artemisone + ganciclovir, Fa 0.97) is 2.171.

Consider `OC[C@H]1O[C@@H](n2c(Br)nc3cc(Cl)c(Cl)cc32)[C@H](O)[C@@H]1O` [BDCRB, 2-bromo-5,6-dichloro-1-beta-D-ribofuranosyl benzimidazole], for which, under setting [2], the EC50 worked out at 500 nM.

As for brincidofovir, the “Dose of drug alone at Fa 0.75” value amounted to 0.001 µm, the “Dose of drug alone at Fa 0.9” value is listed as 0.002 µm, the “Dose of drug alone at Fa 0.95” value came to 0.002 µm and the “Dose of drug alone at Fa 0.97” value is 0.003 µm. The “Dose of drug alone at Fa 0.05” value turned out to be 1.87E-4 µm. Also, the EC50 (Fa 0.5, drug alone, read-out: Dose of drug alone at Fa 0.5) is 0.649 nM. For the same compound, the “DRI (dose reduction index)” value (combination artemisone + brincidofovir, Fa 0.05) worked out at 1.43. Also, for the setting “combination artemisone + brincidofovir, Fa 0.5”, the “DRI (dose reduction index)” value is recorded as 1.48. In addition, the “DRI (dose reduction index)” value (combination artemisone + brincidofovir, Fa 0.75) amounted to 1.5. In addition, the “DRI (dose reduction index)” value (combination artemisone + brincidofovir, Fa 0.9) is “up to 1.5”. For the same compound, the “DRI (dose reduction index)” value (combination artemisone + brincidofovir, Fa 0.9, listed as BCV) is 1.52. Under “combination artemisone + brincidofovir, Fa 0.95”, the “DRI (dose reduction index)” value worked out at 1.53. Where the note is “combination artemisone + brincidofovir, Fa 0.97”, the “DRI (dose reduction index)” value amounted to 1.54. The EC50 (drug alone, human foreskin fibroblasts, read-out: EC50 (concentration that reduced the plaque formation by 50%)) amounted to 1 nM.
